Laboratory results published in patent publication US20250000852A1, “NITROXOLINE FOR USE IN THE TREATMENT OR PREVENTION OF A PLEXIFORM NEUROFIBROMA” (HEALX LTD, priority 2021, published 2025).

Tests used:
[1] = system: WT (ipn02.3λ) immortalized human-derived Schwann cells; assay: CellTiter-Glo cell proliferation assay, WT Schwann cells; type: cell-based; conditions: 48 hours incubation
Text: (§1) In this study the efficacy of nitroxoline was investigated and its ability to reduce cellular proliferation, increase apoptosis, and overall cell viability utilizing immortalized wild-type (WT) and NF1 deficient (Nf1^−/−) Schwann cells (SCs). Nf1^−/− SCs have increased survival and proliferation in vitro, consistent with the in vivo phenotypes (Kim H A et al., Mol Cell Biol. 1997; 17 (2): 862-72). The present studies utilize WT (ipn02.3λ) and NF1^−/− (ipNF95.6) immortalized human-derived SC lines. The selectivity of nitroxoline was compared between NF1^−/− and WT cells.
(§2) Cells were treated with serially diluted nitroxoline starting from […] and incubated for 48 hours. After the incubation period, proliferation, viability, and apoptosis assays were performed as described below: • Cell proliferation was assessed using the CellTiter-Glo Assay (Promega) which measures ATP consumption. […] After 10 minutes, the plates were read using a 96-well microplate luminometer. • Cellular apoptosis was assessed using the Caspase-Glo 3/7 kit (Promega). […] After 10 minutes, plates were read using a 96 well luminometer and caspase 3/7 activity was measured.

[2] = system: NF1−/− (ipNF95.6) immortalized human-derived Schwann cells; assay: CellTiter-Glo cell proliferation assay, NF1 deficient Schwann cells; type: cell-based; conditions: 48 hours incubation
Text: as §1, §2

[3] = system: WT (ipn02.3λ) immortalized human-derived Schwann cells; assay: Caspase-Glo 3/7 apoptosis assay, WT Schwann cells; type: cell-based; conditions: 48 hours incubation, caspase 3/7 activity
Text: as §1, §2

[4] = system: NF1−/− (ipNF95.6) immortalized human-derived Schwann cells; assay: Caspase-Glo 3/7 apoptosis assay, NF1 deficient Schwann cells; type: cell-based
Text: as §1, §2

[5] = system: Postn-Cre+ Nf1fl/fl mouse model of plexiform neurofibroma; assay: In vivo drug testing in Nf1-KO mice (plexiform neurofibroma model); conditions: oral gavage, 12 weeks
Text: The aim of this study was to evaluate the effect of nitroxoline in a mouse model of neurofibromatosis type 1, more specifically a model that develops plexiform neurofibromas. This study is the same used by AstraZeneca for the approval of selumetinib for pNF.
This study uses the Postn-Cre+Nf1^fl/fl mouse model of plexiform neurofibroma. The neurofibromas that arise in these mice faithfully recapitulate human disease (Burks et al. 2019). At 4 months of age when mice (male and female) had established plexiform neurofibromas they were randomised into three treatment groups and administered nitroxoline at 120 mg/kg QD, 120 mg/kg BD or vehicle (10% DMSO in 90% corn oil) via oral gavage. Mice were treated for 12 weeks then sacrificed. Mice were perfused and fixed in 10% neutral buffered formalin.
The whole bodies were decalcified in 5% formic acid, the spinal proximal nerve tree was dissected, and nerve width (including the tumour formed along it) measured via calliper (shown in FIG. 3) across four nerves per mouse. Nerve volume was subsequently calculated using a spheroid calculation: 0.52×(width) 2 w length.
To quantify tumour number, the nerves were processed to paraffin blocks, sectioned, and stained for collagen using Masson's trichrome stain. Tumour number was scored from these slides by a clinician.
Graphs and statistical analysis of data were produced using GraphPad Prism (Ver 9).

O=[N+]([O-])c1ccc(O)c2ncccc12 [Nitroxoline, 5-nitroquinolin-8-ol]
concentration at which antiproliferative effect was observed [1]: greater than 1 μM | concentration at which antiproliferative effect was observed [2]: greater than 1 μM | concentration at which induction of apoptosis was evident [3]: greater than 3 UM | concentration at which induction of apoptosis was evident ([4]; Nf1−/− Schwann cells, 48 hours incubation, caspase 3/7 activity): greater than 3 UM | magnitude of the increase in apoptosis in Nf1−/− SC compared with WT SC ([4]; at concentrations greater than 10 μM, 48 hours): significantly greater | proximal nerve volume compared to vehicle treated control mice ([5]; 120 mg/kg BD): lower proximal nerve volumes | proximal nerve volume compared to vehicle treated control mice ([5]; 120 mg/kg QD): lower proximal nerve volumes | tumour number along the nerves compared to vehicle controls ([5]; nitroxoline treated mice (120 mg/kg QD or BD)): a reduction in tumour number
